Measurements reported in patent publication US20070167628A1, “Thiazole-2-carboxamide derivatives for use as hippar agonists in the treatment of i.a. dyslipidemia” (priority 2003, published 2007).

Columns and labels:
Format in all cases: cell-based
Settings in all cases: SPAP reporter
HPPARα = target: T1, HPPARα (Homo sapiens, UniProt Q07869); assay: Transient transfection (transactivation) assay, hPPAR alpha-GAL4 chimera in CV-1 cells
T1 construct: expressed in transfected cells; host or cells: CV-1 cells
T1 sequence (Q07869 239-466 limits assumed): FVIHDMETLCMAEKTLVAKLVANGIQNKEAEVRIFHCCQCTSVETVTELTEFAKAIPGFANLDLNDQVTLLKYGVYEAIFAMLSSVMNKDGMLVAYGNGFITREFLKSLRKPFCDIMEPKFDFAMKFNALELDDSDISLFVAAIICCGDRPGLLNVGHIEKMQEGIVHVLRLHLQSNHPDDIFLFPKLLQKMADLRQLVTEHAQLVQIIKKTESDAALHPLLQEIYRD
Text: (§1) Compounds were screened for functional potency in transient transfection assays in CV-1 cells for their ability to activate the PPAR subtypes (transactivation assay). A previously established chimeric receptor system was utilized to allow comparison of the relative transcriptional activity of the receptor subtypes on the same target gene and to prevent endogenous receptor activation from complicating the interpretation of results. See, for example, Lehmann, J. M.; Moore, L. B.; Smith-Oliver, T. A.; Wilkison, W. O.; Willson, T. M.; Kliewer, S. A., An antidiabetic thiazolidinedione is a high affinity ligand for peroxisome proliferator-activated receptor gamma (PPARgamma), J. Biol. Chem., 270, 12953-6 (1995). The ligand binding domains for murine and human PPAR alpha, PPAR gamma, and PPAR delta were each fused to the yeast transcription factor GAL4 DNA binding domain. CV-1 cells were transiently transfected with expression vectors for the respective PPAR chimera along with a reporter construct containing five copies of the GAL4 DNA binding site driving expression of secreted placental alkaline phosphatase (SPAP) and beta-galactosidase. After 16 h, the medium was exchanged to DME medium supplemented with 10% delipidated fetal calf serum and the test compound at the appropriate concentration. […]

HPPARδ = target: T2, HPPARδ (Homo sapiens, UniProt Q03181); assay: Transient transfection (transactivation) assay, hPPAR delta-GAL4 chimera in CV-1 cells
T2 construct: expressed in transfected cells; host or cells: CV-1 cells
T2 sequence (Q03181 211-439 limits assumed): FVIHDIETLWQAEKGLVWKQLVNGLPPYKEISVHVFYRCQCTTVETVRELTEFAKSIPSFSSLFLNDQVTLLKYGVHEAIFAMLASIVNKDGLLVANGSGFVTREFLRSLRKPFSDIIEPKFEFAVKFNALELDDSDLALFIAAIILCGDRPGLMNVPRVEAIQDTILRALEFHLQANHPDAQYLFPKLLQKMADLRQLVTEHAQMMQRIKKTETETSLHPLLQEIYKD
Text: as §1

HPPARγ = target: T3, HPPARγ (Homo sapiens, UniProt P37231); assay: Transient transfection (transactivation) assay, hPPAR gamma-GAL4 chimera in CV-1 cells
T3 construct: expressed in transfected cells; host or cells: CV-1 cells
T3 sequence (P37231 238-503 limits assumed): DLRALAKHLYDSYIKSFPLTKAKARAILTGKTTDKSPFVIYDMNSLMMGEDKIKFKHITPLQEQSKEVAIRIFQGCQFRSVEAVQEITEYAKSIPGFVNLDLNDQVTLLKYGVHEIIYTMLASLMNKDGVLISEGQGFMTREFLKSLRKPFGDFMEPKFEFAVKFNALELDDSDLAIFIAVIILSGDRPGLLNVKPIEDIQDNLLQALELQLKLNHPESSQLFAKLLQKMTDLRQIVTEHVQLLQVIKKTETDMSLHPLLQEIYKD
Text: as §1

`Cc1nc(C(=O)NCc2ccc(OC(C)(C)C(=O)O)cc2)sc1-c1ccc(C(C)C)cc1` [Example 1, 2-methyl-2-[(4-{[({4-methyl-5-[4-(1-methylethyl)phenyl]-1,3-thiazol-2-yl}carbonyl)amino]methyl}phenyl)oxy]propanoic acid] gave an EC50 (HPPARα) of 0.008 µM, an EC50 (HPPARδ) of 6.1 µM and an EC50 (HPPARγ) of 0.19 µM.
